The NIST ThermoML archive (doi:10.1016/j.jct.2016.03.026)
± gives the expanded uncertainty stated by the source.

Assay: xn = mol fraction of the nth substance listed
Details: 293.15 K, Fluid (supercritical or subcritical phases), Vibrating tube method, x1 = 0.97

O=C=O [carbon dioxide] + CO
Details | mass density [kg/m3]
7075 kPa | 823.68 ± 0.81
7100 kPa | 824.12 ± 0.81
7125 kPa | 824.56 ± 0.81
7150 kPa | 824.97 ± 0.81
7175 kPa | 825.4 ± 0.81
7200 kPa | 825.75 ± 0.81
7225 kPa | 826.24 ± 0.81
7250 kPa | 826.63 ± 0.81
7275 kPa | 827.05 ± 0.81
7300 kPa | 827.52 ± 0.81
7325 kPa | 827.94 ± 0.81
7350 kPa | 828.35 ± 0.81
7375 kPa | 828.75 ± 0.81
7400 kPa | 829.18 ± 0.81
7425 kPa | 829.57 ± 0.81
7450 kPa | 829.96 ± 0.81
7475 kPa | 830.36 ± 0.81
7500 kPa | 830.75 ± 0.81
7525 kPa | 831.18 ± 0.81
7550 kPa | 831.58 ± 0.81
7575 kPa | 832.01 ± 0.81
7600 kPa | 832.39 ± 0.81
7625 kPa | 832.79 ± 0.81
7650 kPa | 833.16 ± 0.81
7675 kPa | 833.55 ± 0.81
7700 kPa | 833.94 ± 0.81
7725 kPa | 834.35 ± 0.81
7750 kPa | 834.76 ± 0.81
7775 kPa | 835.15 ± 0.81
7800 kPa | 835.53 ± 0.81
7825 kPa | 835.97 ± 0.81
7850 kPa | 836.36 ± 0.81
7875 kPa | 836.75 ± 0.81
7900 kPa | 837.14 ± 0.81
7925 kPa | 837.51 ± 0.81
7950 kPa | 837.87 ± 0.81
7975 kPa | 838.26 ± 0.81
8000 kPa | 838.63 ± 0.81
8025 kPa | 838.99 ± 0.81
8050 kPa | 839.37 ± 0.81
8075 kPa | 839.71 ± 0.81
8100 kPa | 840.15 ± 0.81
8125 kPa | 840.47 ± 0.81
8150 kPa | 840.87 ± 0.81
8175 kPa | 841.23 ± 0.81
8200 kPa | 841.62 ± 0.81
8225 kPa | 841.97 ± 0.81
8250 kPa | 842.39 ± 0.81
8275 kPa | 842.74 ± 0.81
8300 kPa | 843.12 ± 0.81
8325 kPa | 843.46 ± 0.81
8350 kPa | 843.86 ± 0.81
8375 kPa | 844.16 ± 0.81
8400 kPa | 844.56 ± 0.81
8425 kPa | 844.93 ± 0.81
8450 kPa | 845.3 ± 0.81
8475 kPa | 845.64 ± 0.81
8500 kPa | 845.98 ± 0.81
8525 kPa | 846.37 ± 0.81
8550 kPa | 846.75 ± 0.81
8575 kPa | 847.1 ± 0.81
